What follows are molecules tested against T1, human ferroportin (Homo sapiens, UniProt Q9NP59) (assay: Biological in-vitro ferroportin internalization assay (luciferase reporter)). Settings: average pEC50; stably-transfected CHO cell line expressing human ferroportin tagged to a luciferase reporter; 6 h incubation with test compound.
T1 construct: luciferase reporter (read with the Nano-Glo Luciferase Assay System); expressed in transfected cells; host or cells: CHO cells, stably transfected, expression induced with doxycycline
T1 sequence (Q9NP59 1-571): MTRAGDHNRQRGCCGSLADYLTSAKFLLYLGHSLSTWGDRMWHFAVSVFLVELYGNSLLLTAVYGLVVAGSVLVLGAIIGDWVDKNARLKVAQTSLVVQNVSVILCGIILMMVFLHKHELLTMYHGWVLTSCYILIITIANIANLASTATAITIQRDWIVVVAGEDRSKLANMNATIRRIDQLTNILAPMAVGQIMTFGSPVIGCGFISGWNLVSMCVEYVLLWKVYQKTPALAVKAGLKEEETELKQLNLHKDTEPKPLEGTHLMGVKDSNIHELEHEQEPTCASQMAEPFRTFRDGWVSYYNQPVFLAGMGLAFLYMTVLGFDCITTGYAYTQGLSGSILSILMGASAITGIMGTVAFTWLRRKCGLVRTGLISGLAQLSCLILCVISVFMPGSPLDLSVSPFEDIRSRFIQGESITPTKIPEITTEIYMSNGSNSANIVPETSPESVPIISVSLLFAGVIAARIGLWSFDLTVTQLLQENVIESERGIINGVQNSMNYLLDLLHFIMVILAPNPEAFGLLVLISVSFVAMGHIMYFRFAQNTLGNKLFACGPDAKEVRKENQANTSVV
Assay type: cell-based
How it was run: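 Read-out is Nano-Glo luciferase signal after 6 h compound exposure, with average pEC50 derived. Cells are a stable CHO line carrying luciferase-tagged human ferroportin, pre-loaded 24 h with ferric ammonium citrate and doxycycline-induced for 24 h.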
COc1ccc(N(C)C(=O)CN(C)c2nc(-c3cc(OCCO)ccn3)nc3c2CCC3)cc1 [Compound 334, 2-({2-[4-(2-hydroxyethoxy)pyridin-2-yl]-5H,6H,7H-cyclopenta[d]pyrimidin-4-yl}(methyl)amino)-N-(4-methoxyphenyl)-N-methylacetamide] gave a pEC50 of 7.2. CCC(C)(CC)NC(=O)CN(C)c1nc(-c2cc(OCCO)ccn2)nc2c1CCC2 [Compound 392, 2-({2-[4-(2-hydroxyethoxy)pyridin-2-yl]-5H,6H,7H-cyclopenta[d]pyrimidin-4-yl}(methyl)amino)-N-(3-methylpentan-3-yl)acetamide] was tested, and the pEC50 was 8.3. CN(CC(=O)N[C@@H]1CCOC1)c1nc(-c2cc(OCC(C)(C)O)ccn2)nc2c1CCC2 [Compound 422, 2-({2-[4-(2-hydroxy-2-methylpropoxy)pyridin-2-yl]-5H,6H,7H-cyclopenta[d]pyrimidin-4-yl}(methyl)amino)-N-[(3R)-oxolan-3-yl]acetamide] was tested, and the pEC50 was 7.4. For CN(CC(=O)N1CCCCC1)c1nc(-c2cc(OCCO)ccn2)nc2c1CCC2 [Compound 263, 2-({2-[4-(2-hydroxyethoxy)pyridin-2-yl]-5H,6H,7H-cyclopenta[d]pyrimidin-4-yl}(methyl)amino)-1-(piperidin-1-yl)ethan-1-one], the pEC50 was 8. CN(CC(=O)Nc1cccc(F)c1)c1nc(-c2cc3c(cn2)OCCO3)nc2c1CCC2 [Compound 282, 2-[(2-{2H,3H-[1,4]dioxino[2,3-c]pyridin-7-yl}-5H,6H,7H-cyclopenta[d]pyrimidin-4-yl)(methyl)amino]-N-(3-fluorophenyl)acetamide] showed a pEC50 of 7.5. COCc1ccnc(-c2nc3c(c(N(C)CC(=O)NC(C)(C)C)n2)CCC3)c1 [Compound 35, N-tert-butyl-2-({2-[4-(methoxymethyl)pyridin-2-yl]-5H,6H,7H-cyclopenta[d]pyrimidin-4-yl}(methyl)amino)acetamide] showed a pEC50 of 7. CN(c1nc(-c2ccccn2)nc2c1CCC2)[C@@H](COC(C)(C)C)C(=O)NC(C)(C)C [Compound 120, (2S)-3-(tert-butoxy)-N-tert-butyl-2-{methyl[2-(pyridin-2-yl)-5H,6H,7H-cyclopenta[d]pyrimidin-4-yl]amino}propanamide] was tested, and the pEC50 was 7.2. In the case of CN(CC(=O)NC(C)(C)C)c1nc(-c2cc(O)ccn2)nc2c1CCC2 [Compound 482, N-tert-butyl-2-{[2-(4-hydroxypyridin-2-yl)-5H,6H,7H-cyclopenta[d]pyrimidin-4-yl](methyl)amino}acetamide], the pEC50 is reported as 6.1. For CN1CC[C@@H](Oc2ccnc(-c3nc4c(c(N(C)CC(=O)NC(C)(C)C)n3)CCC4)c2)C1 [Compound 437, N-tert-butyl-2-{methyl[2-(4-{[(3R)-1-methylpyrrolidin-3-yl]oxy}pyridin-2-yl)-5H,6H,7H-cyclopenta[d]pyrimidin-4-yl]amino}acetamide], the pEC50 was 8.0. COc1ccc(NC(=O)CN(C)c2nc(-c3cc(OCCO)ccn3)nc3c2CCC3)cc1 [Compound 269, 2-({2-[4-(2-hydroxyethoxy)pyridin-2-yl]-5H,6H,7H-cyclopenta[d]pyrimidin-4-yl}(methyl)amino)-N-(4-methoxyphenyl)acetamide] gave a pEC50 of 8.4. CC[C@H](O)COc1ccnc(-c2nc3c(c(N(C)CC(=O)NC(C)(C)C)n2)CCC3)c1 [Compound 394, (S)—N-(tert-butyl)-2-((2-(4-(2-hydroxybutoxy)pyridin-2-yl)-6,7-dihydro-5H-cyclopenta[d]pyrimidin-4-yl)(methyl)amino)acetamide] was tested, and the pEC50 was 8.3. For CCC(O)(CC)COc1ccnc(-c2nc3c(c(N(C)CC(=O)NC(C)(C)C)n2)CCC3)c1 [Compound 395, N-tert-butyl-2-({2-[4-(2-ethyl-2-hydroxybutoxy)pyridin-2-yl]-5H,6H,7H-cyclopenta[d]pyrimidin-4-yl}(methyl)amino)acetamide], the pEC50 was 8.4. CCNC(=O)CN(C)c1nc(-c2cc(OCC3(O)CCOCC3)ccn2)nc2c1CCC2 [Compound 447, N-ethyl-2-[(2-{4-[(4-hydroxyoxan-4-yl)methoxy]pyridin-2-yl}-5H,6H,7H-cyclopenta[d]pyrimidin-4-yl)(methyl)amino]acetamide] showed a pEC50 of 7.6. COc1ccnc(-c2nc3c(c(N(C)[C@H](C)C(=O)NC4CCCCC4)n2)CCC3)c1 [Compound 119, (2R)—N-cyclohexyl-2-{[2-(4-methoxypyridin-2-yl)-5H,6H,7H-cyclopenta[d]pyrimidin-4-yl](methyl)amino}propanamide] gave a pEC50 of 7.7. Molecule CC(C)(C)NC(=O)CN(CCO)c1nc(-c2ccccn2)nc2c1CCC2 [Compound 37, N-tert-butyl-2-[(2-hydroxyethyl)[2-(pyridin-2-yl)-5H,6H,7H-cyclopenta[d]pyrimidin-4-yl]amino]acetamide] has a pEC50 of 6.6. O=C1CN(c2nc(-c3ccccn3)nc3c2CCC3)CCCN1 [Compound 47, 4-[2-(pyridin-2-yl)-5H,6H,7H-cyclopenta[d]pyrimidin-4-yl]-1,4-diazepan-2-one] was tested, and the pEC50 was 5.7. CN(CCOc1ccccc1)c1nc(-c2ccccn2)nc2c1CCC2 [Compound 87, N-methyl-N-(2-phenoxyethyl)-2-(pyridin-2-yl)-5H,6H,7H-cyclopenta[d]pyrimidin-4-amine] gave a pEC50 of 6.6. In the case of CN(CC(=O)NC(C)(C)C)c1nc(-c2cc3ccccc3cn2)nc2c1CCC2 [Compound 165, N-tert-butyl-2-{[2-(isoquinolin-3-yl)-5H,6H,7H-cyclopenta[d]pyrimidin-4-yl](methyl)amino}acetamide], the pEC50 is reported as 7.4. CN(CC(=O)N1CCCC1)c1nc(-c2cc(OCCO)ccn2)nc2c1CCC2 [Compound 354, 2-({2-[4-(2-hydroxyethoxy)pyridin-2-yl]-5H,6H,7H-cyclopenta[d]pyrimidin-4-yl}(methyl)amino)-1-(pyrrolidin-1-yl)ethan-1-one] was tested, and the pEC50 was 7.7. For CN(CC(=O)NC(C)(C)C)c1nc(-c2cc(O[C@H]3CCOC3)ccn2)nc2c1CCC2 [Compound 317, N-tert-butyl-2-[methyl(2-{4-[(3S)-oxolan-3-yloxy]pyridin-2-yl}-5H,6H,7H-cyclopenta[d]pyrimidin-4-yl)amino]acetamide], the pEC50 was 7.9. CC(C)NC(=O)CN(C)c1nc(-c2cc(OCCN(C)C)ccn2)nc2c1CCC2 [Compound 428, 2-[(2-{4-[2-(dimethylamino)ethoxy]pyridin-2-yl}-5H,6H,7H-cyclopenta[d]pyrimidin-4-yl)(methyl)amino]-N-(propan-2-yl)acetamide] gave a pEC50 of 7.5. Molecule COc1ccnc(-c2nc3c(c(N(C)CC(=O)N[C@@H]4CCOC4)n2)CCC3)c1 [Compound 372, 2-{[2-(4-methoxypyridin-2-yl)-5H,6H,7H-cyclopenta[d]pyrimidin-4-yl](methyl)amino}-N-[(3R)-oxolan-3-yl]acetamide] has a pEC50 of 7.5. Molecule COc1ccnc(-c2nc3c(c(N(C)CC(=O)Nc4ccc(C)nc4)n2)CCC3)c1 [Compound 200, 2-{[2-(4-methoxypyridin-2-yl)-5H,6H,7H-cyclopenta[d]pyrimidin-4-yl](methyl)amino}-N-(6-methylpyridin-3-yl)acetamide] has a pEC50 of 7.6. Work on CN(CC(=O)NC(C)(C)C)c1nc(-c2cc(O[C@@H]3CCN(CC(F)F)C3)ccn2)nc2c1CCC2 [Compound 491, N-tert-butyl-2-{[2-(4-{[(3R)-1-(2,2-difluoroethyl)pyrrolidin-3-yl]oxy}pyridin-2-yl)-5H,6H,7H-cyclopenta[d]pyrimidin-4-yl](methyl)amino}acetamide] yielded a pEC50 of 8.2. For COc1ccc(NC(=O)[C@@H](C)N(C)c2nc(-c3cc4ccccc4cn3)nc3c2CCC3)cn1 [Compound 250, (2R)-2-{[2-(isoquinolin-3-yl)-5H,6H,7H-cyclopenta[d]pyrimidin-4-yl](methyl)amino}-N-(6-methoxypyridin-3-yl)propanamide], the pEC50 was 7.4. Molecule Cc1cccnc1-c1nc2c(c(N(C)CC(=O)NC(C)(C)C)n1)CCC2 [Compound 103, N-tert-butyl-2-{methyl[2-(3-methylpyridin-2-yl)-5H,6H,7H-cyclopenta[d]pyrimidin-4-yl]amino}acetamide] has a pEC50 of 6.4. COc1cccc(NC(=O)[C@@H](C)N(C)c2nc(-c3cn(C)cn3)nc3c2CCC3)c1 [Compound 278, (2R)—N-(3-methoxyphenyl)-2-{methyl[2-(1-methyl-1H-imidazol-4-yl)-5H,6H,7H-cyclopenta[d]pyrimidin-4-yl]amino}propanamide] showed a pEC50 of 7.8. COc1cccc(N2CCCN(c3nc(-c4ccccn4)nc4c3CCC4)CC2)c1 [Compound 4, 1-(3-methoxyphenyl)-4-[2-(pyridin-2-yl)-5H,6H,7H-cyclopenta[d]pyrimidin-4-yl]-1,4-diazepane] gave a pEC50 of 6.4. C[C@H](C(=O)Nc1cccc(F)c1)N(C)c1nc(-c2cc(OCCO)ccn2)nc2c1CCC2 [Compound 251, (2R)—N-(3-fluorophenyl)-2-({2-[4-(2-hydroxyethoxy)pyridin-2-yl]-5H,6H,7H-cyclopenta[d]pyrimidin-4-yl}(methyl)amino)propanamide] showed a pEC50 of 8.3.
